Our source for the logD values is the SangsterLogP compilation.

Each structure is given as a SMILES string.

The series can be described thus: method code SF-HPLC, from DOI: 10.1002/qsar.19910100205. Conditions: pH 3.5.

In the case of `O=C1NC(=O)C(Cc2ccccc2)S1` (configuration not stated), the log distribution coefficient (logD) came out at 1.98.

With `O=C1CC(=O)C(c2ccccc2)N1` (configuration not stated), the log distribution coefficient (logD) worked out at 0.48.

Compound `O=c1[nH]c(=O)n(-c2ccccc2)o1` came in with a logD of 1.68.

With `O=C1CC(=O)N(c2ccccc2)O1`, the log distribution coefficient (logD) was determined as 0.54.

Compound `CC1(COc2ccc(CC3SC(=O)NC3=O)cc2)CCCCC1` (configuration not stated) had a pH-dependent lipophilicity (logD) of 3.57.

Compound `O=C1CN(Cc2ccccc2)C(=O)N1` displayed a logD of 0.76.

`NS(=O)(=O)NC(=O)Cc1ccccc1` showed a logD of 0.31.

Regarding `O=C1CNC(=O)N1c1ccccc1`, the pH-dependent lipophilicity (logD) stood at 0.04.

The compound `O=C1NC(=O)N(Cc2ccccc2)C1=O` displayed a logD of 1.19.

The compound `O=C1CS(=O)(=O)C(c2ccccc2)N1` (configuration not stated) registered a logD of 0.18.

`O=C1NC(=O)C(Cc2ccccc2)N1` (configuration not stated) showed a logD of 0.6.

Take `O=C1NC(=O)N(c2ccccc2)C1=O`: the logD was determined as 0.6.

The compound `O=C1NC(=O)C(Cc2ccccc2)O1` (configuration not stated) showed a pH-dependent lipophilicity (logD) of 1.2.

As to `O=C1CC(=O)C(c2ccccc2)O1` (configuration not stated), the logD turned out to be 1.07.

Regarding `O=C1CN(c2ccccc2)C(=O)N1`, the log distribution coefficient (logD) is 0.83.

Consider `O=C1NC(=O)C(c2ccccc2)O1` (configuration not stated), for which the logD is 1.09.

As for `O=C1CC(=O)N(Cc2ccccc2)C1`, the log distribution coefficient (logD) is 0.76.
